Measured values: US20230027066A1 (Urovant Sciences GmbH, priority 2019, published 2023)

Test system: men and women with overactive bladder
Assay: extension study, OAB-q LF coping subscore at Week 52
Assay type: in vivo, human
Details: for OAB-q LF Coping Subscore, Week 52 Mean: Full Analysis Set Extension; for OAB-q LF Coping Subscore, Change from Baseline Mean at Week 52: baseline from parent study

Structure (SMILES)	OAB-q LF Coping Subscore, Week 52 Mean (40-Week treatment group)	OAB-q LF Coping Subscore, Change from Baseline Mean at Week 52 (40-Week treatment group)	OAB-q LF Coping Subscore, Week 52 Mean (52-Week treatment group)	OAB-q LF Coping Subscore, Change from Baseline Mean at Week 52 (52-Week treatment group)
Cc1ccc(O)c([C@H](CCN(C(C)C)C(C)C)c2ccccc2)c1 [Tolterodine ER, tolterodine, reference compound]	82.5	24.7	81.8	22.1
O=C(Nc1ccc(C[C@@H]2CC[C@H]([C@H](O)c3ccccc3)N2)cc1)[C@@H]1CCc2nccc(=O)n21 [Vibegron, (6S)-N-[4-[[(2S,5R)−5-[(R)-hydroxy(phenyl)methyl]pyrrolidin−2-yl]methyl]phenyl]−4-oxo−7,8-dihydro−6H-pyrrolo[1,2-a]pyrimidine−6-carboxamide]	86.3	28.3	83.6	27.1
